The values below come from publication PMC7175277, “Hydroxylamine Analogue of Agmatine: Magic Bullet for Arginine Decarboxylase” (Biomolecules, 2020).

“Also recorded” adds a separate entry of the source. Like-named read-outs stand apart in the source and are kept apart here.

Data set [1] relates to Acremonium chrysogenum wild-type (WT) ATCC 11550. The data set can be described thus: Fungal growth inhibition (drop-dilution, CD agar), WT strain. The class given is cell-based. An excerpt:
(§1) Two strains of Acremonium chrysogenum were used in this study: the wild-type (Brotzu) isolate ATCC 11550 (WT) and high-cephalosporin-yielding RNCM F-4081D (HY), derived from the WT [37]. The cultivation conditions were the same as previously described. The filamentous fungi were cultivated on agarized Czapek-Dox (CD) medium (30 g/L sucrose, 2 g/L NaNO3, 1 g/L K2HPO4, 0.5 g/L MgSO4×7 H2O, 0.5 g/L KCl, 0.01 g/L FeSO4×7 H2O, 20 g/L agar, pH 7.0–7.4). To determine the toxic effect of AO-Agm, APA, DFMA and DFMO on the growth of fungal cells the drop-dilution method was used with some modifications as described earlier. Cells were collected from agar slants and diluted with 0.9% NaCl solution up to OD600 = 0.5 (basic concentration), followed by serial tenfold dilutions with the same solution. […] The inoculated Petri dishes were incubated for 21 days at 26 °C. The inhibitory effects of the compounds were measured every three days after inoculation and evaluated by measuring the ratio of colony growth on agarized CD medium supplemented with AO-Agm, APA, DFMA, or DFMO to the growth in the control (agarized CD medium without any additions). The formula: growth inhibition % = [(Dc − Dt)/Dc] × 100, where Dc indicates the colony diameter in control set, and Dt indicates the colony diameter in the treatment set that was used to determine the percent of fungal growth inhibition. The data recorded were measured in triplicate and repeated at least twice.

The target in data set [2] is T1, E. coli ADC (Escherichia coli, UniProt P21170).
T1 construct: The kinetic parameters determined for the partially purified biosynthetic ADC from E. coli; endogenous in cells; host or cells: E. coli DH5α (39-53% ammonium sulphate fraction of the lysate, desalted)
T1 sequence (P21170 1-658): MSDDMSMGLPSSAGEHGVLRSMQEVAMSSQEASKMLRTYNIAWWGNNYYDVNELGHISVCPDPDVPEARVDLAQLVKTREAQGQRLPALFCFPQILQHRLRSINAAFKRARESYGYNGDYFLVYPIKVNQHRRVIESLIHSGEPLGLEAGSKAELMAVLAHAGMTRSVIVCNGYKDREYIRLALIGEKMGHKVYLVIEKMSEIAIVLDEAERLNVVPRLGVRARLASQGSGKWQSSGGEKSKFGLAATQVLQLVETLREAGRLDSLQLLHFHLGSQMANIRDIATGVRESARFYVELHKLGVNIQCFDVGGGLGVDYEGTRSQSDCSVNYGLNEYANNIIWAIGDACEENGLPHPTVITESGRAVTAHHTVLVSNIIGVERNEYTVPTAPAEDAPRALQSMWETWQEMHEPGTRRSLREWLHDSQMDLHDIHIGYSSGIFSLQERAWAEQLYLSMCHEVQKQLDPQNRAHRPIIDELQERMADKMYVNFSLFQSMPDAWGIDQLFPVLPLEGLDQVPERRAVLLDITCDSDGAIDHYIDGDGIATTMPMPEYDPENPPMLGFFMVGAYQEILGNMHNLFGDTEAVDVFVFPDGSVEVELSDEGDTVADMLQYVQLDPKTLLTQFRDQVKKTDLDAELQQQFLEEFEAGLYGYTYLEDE
The data set can be described thus: E. coli ADC activity assay (HPLC of agmatine). Type of data set: biochemical. As to conditions: 0.1 mM PLP; 15 min preincubation; 0.15 mM L-Arg. How it is done: The purification was performed using a modified procedure of earlier publication. E. coli strain DH5α was grown in Luria-Bertani broth at +37 °C with shaking (200 rpm) overnight. The cells were collected by centrifugation and the pellet was homogenized with Potter-Elvehjem in 10 volumes (w/v) of ice-cold 50 mM Tris-HCl pH 7.4, 1 mM DTT. The cell debris was removed by centrifugation at 12,000 g for 30 min at +4 °C. Solid (NH4)2SO4 was added to the supernatant, and the pellet precipitating between 39% and 53% saturation was separated. The precipitate was resuspended in ice-cold buffer containing 50 mM Tris-HCl pH 7.4 and 1 mM DTT and desalted by passage through Sephadex G-25 column (NAP-10 column, GE Healthcare). The protein concentration was measured with Bio-Rad protein reagent, and the partially purified enzyme preparation was mixed with 20% glycerol and aliquoted for storage at −80 °C.
[…] The ODC reaction mixture contained 50 mM Tris-HCl pH 7.8, 1 mM EDTA, 2.4 mM DTT, 0.1 mM PLP and 20 μg of partially purified enzyme preparation. The mixtures were either preincubated or not preincubated for 15 min at +40 °C in the presence of the inhibitor, after which the reaction was started by the addition of 18 μL of 10× substrate (L-Arg for ADC and L-Orn for ODC). After incubation for 30 min (ADC) or 20 min (ODC) at +40 °C, 20 μL of 50% sulphosalicylic acid containing 50 μM diaminoheptane (internal standard) was added and the samples were analyzed for the content of agmatine (ADC) and Put (ODC) with HPLC as described previously. The kinetic parameters and IC50 values were determined with the aid of GraphPad Prism version 5.03 using nonlinear regression analysis.

The subject of a further data set is mammalian ODC. On the set-up: method as in PMID 3841480, PMID 1573631. As to conditions: cited from earlier work.
Data set [3] concerns Acremonium chrysogenum high-cephalosporin-yielding (HY) RNCM F-4081D. Put plainly: Fungal growth inhibition (drop-dilution, CD agar), HY strain. Type of data set: cell-based.
Description: as §1

Details of data set [4]: method as in PMID 7896733. Particulars: 48 h; absence of amine oxidase inhibitor; cited from earlier work.
In data set [5] the target is T1, E. coli ADC. More on the design: method as in PMID 4571773. As to conditions: cited from earlier work.
The target in a further data set is T2, mouse kidney ODC (Mus musculus, UniProt P00860).
T2 construct: Aliquots of the supernatant were mixed with 1–5000 μM of AO-Agm and the ODC assay was carried out; from tissue; host or cells: C57Bl/6J male mouse kidney, 12,000 g supernatant of the homogenate
T2 sequence (P00860 1-461): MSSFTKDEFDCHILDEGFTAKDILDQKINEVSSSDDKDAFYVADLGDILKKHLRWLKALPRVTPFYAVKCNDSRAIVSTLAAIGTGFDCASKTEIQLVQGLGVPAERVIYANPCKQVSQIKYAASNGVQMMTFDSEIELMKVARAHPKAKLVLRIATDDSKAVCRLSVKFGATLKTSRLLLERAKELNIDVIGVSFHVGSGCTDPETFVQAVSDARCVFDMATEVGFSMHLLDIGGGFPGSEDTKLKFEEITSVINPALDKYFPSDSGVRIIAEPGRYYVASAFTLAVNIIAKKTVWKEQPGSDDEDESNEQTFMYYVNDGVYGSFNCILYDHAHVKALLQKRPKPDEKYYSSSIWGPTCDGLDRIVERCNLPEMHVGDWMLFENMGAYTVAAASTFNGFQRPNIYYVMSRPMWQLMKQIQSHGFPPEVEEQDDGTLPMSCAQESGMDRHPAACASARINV
On the set-up: method as in PMID 6810923. Particulars: reversibly bound PLP; cited from earlier work.

What is called inhibition is how much of the control response was suppressed. As a reminder, the IC50 is the midpoint of a concentration-inhibition curve. For the compound `NCCCON` [APA, 1-aminooxy-3-aminopropane], the “Growth of WT strain” value in data set [1] (5 mM inhibitor) was “completely inhibited”. For the same compound, in data set [1] (5 mM inhibitor + 0.5 mM Spd), the “Effect of 0.5 mM Spd on the growth arrest caused by the inhibitor” value is reported as “reversed the growth arrest”. Moreover, the inhibition at 1000 µM in data set [1] (Hapsidospora chrysogena, ATCC11550, 1 mM inhibitor, 17th day after inoculation) was about 95%. The compound also returned an inhibition at 5000 µM in data set [1] (Hapsidospora chrysogena, ATCC11550, 336 h, 5 mM inhibitor, 14 days after inoculation on CD medium) of 100%. Further, on E. coli ADC [2], the “ADC inhibition relative to AO-Agm (weaker)” value was determined as 1000 times and 33 ± 2 µM corresponded to half-maximal inhibition (IC50). Also, in the data set on mammalian ODC, the “Concentrations inhibiting mammalian ODC” value is given as “nanomolar inhibitor; also recorded: nanomolar concentrations”. Besides, in data set [3] (HY strain, 1 mM inhibitor), the “Growth inhibition compared with 5 mM” value was “much less effective”. In addition, the inhibition at 5000 µM in data set [3] (Hapsidospora chrysogena, 336 h, read-out: Growth inhibition) is 44%. For the same compound, the “Level remaining in the cell culture medium, of its initial concentration” value in data set [4] was “about 10%”.
Broadly, the Km is the substrate concentration at which the rate is half of its maximum. Consider `N=C(N)NCCC[C@H](N)C(=O)O` [L-Arg, L-arginine], for which, at E. coli ADC [5] (pH 8.4), the Michaelis constant (Km) is 30 µM.
With `Cc1ncc(COP(=O)(O)O)c(C=O)c1O` [PLP, pyridoxal-5’-phosphate], the Km at E. coli ADC [5] (PLP binding to the apo-enzyme) was 0.6 µM; at mouse kidney ODC, 0.3 µM.
